Experimental data published in ChEMBL document CHEMBL1134259, “Antitumor agents. Part 204: synthesis and biological evaluation of substituted 2-aryl quinazolinones” (Bioorg Med Chem Lett, 2001).
Values after ≈ are worked out from the molar mass of the structure shown. Active and inactive are the calls of the source. The rule behind the calls is not given here.

Legend:
A549 [1] = experiment: In vitro effective concentration required to reduce the number of human lung carcinoma (A-549) after 3-day incubation; assay type: functional; conditions: A549, 72 h, read-out: ED50 (the source's name)
KB [2] = experiment: In vitro effective concentration required to reduce the number of Human epidermoid carcinoma cells (KB) of nasopharynx after 3-day incubation; assay type: functional; conditions: 72 h, read-out: ED50 (the source's name)
MCF7 [3] = experiment: In vitro effective concentration required to reduce the number of human breast cancer (MCF-7) after 3-day incubation; assay type: functional; conditions: for EC50: 72 h, read-out: ED50 (the source's name)
H9 [4] = experiment: Concentration required to inhibit uninfected H9 cell growth when tested for anti-HIV activity; assay type: functional, cell-based; conditions: Homo sapiens
KB [5] = experiment: In vitro effective concentration required to reduce the number of P-glycoprotein-expressing human epidermoid carcinoma cells (KB-VIN) of nasopharynx after 3-day incubation; assay type: functional; conditions: 72 h, read-out: ED50 (the source's name)
1A9 [6] = experiment: In vitro effective concentration required to reduce the number of human ovarian cancer (1A9) after 3-day incubation; assay type: functional; conditions: for EC50: 1A9, 72 h, read-out: ED50 (the source's name)
HCT-8 [7] = experiment: In vitro effective concentration required to reduce the number of human ileocecal carcinoma (HCT-8) after 3-day incubation; assay type: functional; conditions: for EC50: HCT-8, 72 h, read-out: ED50 (the source's name)
[8] = Therapeutic index (IC50/EC50) was determined.; conditions: read-out: Therapeutic index
H9 [9] = experiment: Concentration required to inhibit viral replication in acutely infected H9 lymphocytes when tested for anti-HIV activity; assay type: functional, cell-based; conditions: Homo sapiens
Tubulin = experiment: Inhibitory concentration required against tubulin polymerization in the antimicrotubule activity test; assay type: functional
SK-MEL-2 [10] = experiment: In vitro effective concentration required to reduce the number of human melanoma cancer (SKMEL-2) after 3-day incubation; assay type: functional; conditions: SK-MEL-2, 72 h, read-out: ED50 (the source's name)
Tumor cell line = experiment: Tested for inhibitory activity against growth of about half of NCI's drug screen tumor cell lines at subnanomolar concentrations; assay type: functional; conditions: read-out: Log TGI (converted)
[11] = Therapeutic index (IC50/EC50) was determined; Did not dissolve
SK-MEL-2 [12] = experiment: In vitro effective concentration required to reduce the number of human melanoma cancer cells (SKMEL-2) after 3-day incubation; assay type: functional; conditions: SK-MEL-2, 72 h, read-out: ED50 (the source's name)
A549 [13] = experiment: In vitro effective concentration required to reduce the number of human lung carcinoma cells (A-549) after 3-day incubation; assay type: functional; conditions: A549, 72 h, read-out: ED50 (the source's name)
HCT-8 [14] = experiment: In vitro effective concentration required to reduce the number of human ileocecal carcinoma cells(HCT-8) after 3-day incubation; assay type: functional; conditions: HCT-8, 72 h, read-out: ED50 (the source's name)
MCF7 [15] = experiment: In vitro effective concentration required to reduce the number of human breast cancer cells (MCF-7) after 3-day incubation; assay type: functional; conditions: MCF7, 72 h, read-out: ED50 (the source's name)
1A9 [16] = experiment: In vitro effective concentration required to reduce the number of human ovarian cancer cells (1A9) after 3-day incubation; assay type: functional; conditions: 1A9, 72 h, read-out: ED50 (the source's name)

EC50 (A549 [1])	EC50 (KB [2])	EC50 (MCF7 [3])	EC50 (KB [5])	EC50 (1A9 [6])	EC50 (HCT-8 [7])	EC50 (H9 [9])	IC50 (Tubulin)	EC50 (SK-MEL-2 [10])	SMILES	IC50 (H9 [4])	selectivity ratio [8]	Therapeutic index [11]	also measured
< 5 µg/mL	< 5 µg/mL	13.1 µg/mL (≈ 43.6 µM)	< 5 µg/mL	> 20 µg/mL	17 µg/mL (≈ 56.6 µM)	10.9 µM	> 40 µM	< 5 µg/mL	COc1cc2nc(-c3ccccc3F)nc(O)c2cc1OC	100 µM	9.17		
									COc1cccc(-c2cc(O)c3cc(N4CCCC4)ccc3n2)c1				TGI (Tumor cell line): < 0.001 µM
> 20 µg/mL		> 20 µg/mL	> 20 µg/mL		> 20 µg/mL		8.6 µM	> 20 µg/mL	COc1cccc(-c2nc(O)c3ccccc3n2)c1				ED50 (1A9 [6]): inactive
9.8 µg/mL (≈ 40.8 µM)	> 20 µg/mL	> 20 µg/mL	8.5 µg/mL (≈ 35.4 µM)	> 20 µg/mL		9.53 µM	> 40 µM	> 20 µg/mL	Oc1nc(-c2cccc(F)c2)nc2ccccc12	30.7 µM	3.22		ED50 (HCT-8 [7]): inactive
> 20 µg/mL			> 20 µg/mL	> 20 µg/mL	> 20 µg/mL		> 40 µM	> 20 µg/mL	COc1cc2nc(-c3cccc(F)c3)nc(O)c2cc1OC			Did not dissolve	ED50 (MCF7 [3]): inactive
8 µg/mL (≈ 24.1 µM)	7.3 µg/mL (≈ 22 µM)	6.6 µg/mL (≈ 19.9 µM)	1.6 µg/mL (≈ 4.81 µM)	7.8 µg/mL (≈ 23.5 µM)	> 10 µg/mL	7.59 µM	> 40 µM	8.5 µg/mL (≈ 25.6 µM)	COc1cc2nc(-c3ccc4ccccc4c3)nc(O)c2cc1OC	100 µM	13.2		
14.4 µg/mL (≈ 52.9 µM)	12.5 µg/mL (≈ 45.9 µM)	10.3 µg/mL (≈ 37.8 µM)	6 µg/mL (≈ 22 µM)	8 µg/mL (≈ 29.4 µM)	19.1 µg/mL (≈ 70.1 µM)		> 40 µM	13 µg/mL (≈ 47.7 µM)	Oc1nc(-c2ccc3ccccc3c2)nc2ccccc12			Did not dissolve	
7.5 µg/mL (≈ 31.2 µM)	> 20 µg/mL	> 20 µg/mL	6.5 µg/mL (≈ 27.1 µM)	> 20 µg/mL		9.18 µM	> 40 µM	> 20 µg/mL	Oc1nc(-c2ccc(F)cc2)nc2ccccc12	38.8 µM	4.22		ED50 (HCT-8 [7]): inactive
> 20 µg/mL	> 20 µg/mL	14.5 µg/mL (≈ 46.4 µM)	19 µg/mL (≈ 60.8 µM)	17.5 µg/mL (≈ 56 µM)	> 20 µg/mL		6.5 µM		COc1cccc(-c2nc(O)c3cc(OC)c(OC)cc3n2)c1				
28.1 µg/mL (≈ 99.5 µM)	1.98 µg/mL (≈ 7.01 µM)	37.5 µg/mL (≈ 133 µM)		4.7 µg/mL (≈ 16.6 µM)	> 40 µg/mL		4.9 µM	> 40 µg/mL	COc1cccc(-c2nc(O)c3cc(OC)ccc3n2)c1				
> 20 µg/mL	> 20 µg/mL	19.8 µg/mL (≈ 65.9 µM)	> 20 µg/mL	16 µg/mL (≈ 53.3 µM)	> 20 µg/mL		> 40 µM	> 20 µg/mL	COc1cc2nc(-c3ccc(F)cc3)nc(O)c2cc1OC			Did not dissolve	
	> 20 µg/mL		17.5 µg/mL (≈ 72.8 µM)				> 40 µM		Oc1nc(-c2ccccc2F)nc2ccccc12			Did not dissolve	EC50 (SK-MEL-2 [12]): > 20 µg/mL; EC50 (A549 [13]): > 20 µg/mL; EC50 (HCT-8 [14]): > 20 µg/mL; EC50 (MCF7 [15]): > 20 µg/mL; EC50 (1A9 [16]): 17.1 µg/mL (≈ 71.2 µM)
